We go through 1 compound from patent US20260297165A1, “COMPOSITIONS AND METHODS FOR EXPRESSING THERAPEUTICS” (priority 2023, published 2026).

Assay [1] relates to NIH-3T3 cells. Nature of the assay: cGMP production in NIH-3T3 cells. It is filed as cell-based.
The test system of assay [2] is Hep1c1c7 cells. Nature of the assay: Cell lysis inhibition assay (normal human serum, WST-8). It is filed as cell-based. To be noted: NHS dose causing 70% cell lysis. The protocol: To test biological function of sCD59, cell lysis inhibition assay was performed using Hep1c1c7 cells. The serum dose causing approximately 70% cell lysis was determined for the new normal human serum (NHS) before the purified sCD59 proteins were used for cell lysis inhibition assay. Three hours prior to the experiment, 1×10^4 cells per well were seeded onto a 96-well plate. Various doses of NHS were mixed with GVB2++ buffer (with Ca^2+ and Mg^2+) (Complement Technology, Cat. B100). 100 μL of mixture was added to each well. Background lysis was measured using GVB2++ buffer only and maximum lysis was measured by lysing all the cells with Maximum Lysis Buffer (GVB2++ plus 1% SDS). […] The absorbance at 450 nm was measured using a microplate reader. To calculate the percentage of live cells, the absorbance was subtracted by the Max Lysis, divided by Background Lysis minus Max Lysis and multiplied by 100, which equaled the % of live cells. The % of dead cells was calculated by subtracting 100 by the % of live cells. In the GraphPad Prism, the % of cell death was plotted against dose of NHS, and the dose of NHS causing 50% and 70% hemolysis was respectively determined (FIG. 15A). […]
To test biological function of vsCD59, cell lysis inhibition assay is performed using Hep1c1c7 cells. […] The absorbance at 450 nm is measured using a microplate reader. […]
Background: Tetrazolium assays rely on reduction of a dye to a coloured formazan, in cell work by metabolically active cells.

Assay [3] addresses T1, C3c (Homo sapiens, UniProt P01024).
T1 construct: C3, C3b and C3c proteins were immobilized in flow cell 2 or 4
Nature of the assay: Binding affinity to C3c by Biacore. A general note: In SPR one partner is held on a chip, and binding of the other changes the refractive index at the surface.

In assay [4] the target is C3b (Homo sapiens, UniProt P01024). The experiment in a line: Binding affinity to C3b by Biacore. The protocol: (§1) The estimated IC50 of the C3i fusion proteins were measured as shown above. Next their binding affinity with Complement C3b, C3c, and C3 was tested. Binding affinity was measured using Biacore. Biosensor analysis was performed at room temperature in a running buffer (1×HBS, 20 mM NaH2PO4-Na2HPO4·H2O, 150 mM NaCl, pH 7.4, supplemented with 0.005% (v/v) surfactant P20), using a Biacore 3000 optical biosensor equipped with a research-grade CM5 sensor chip. C3, C3b and C3c proteins were immobilized in flow cell 2 or 4 via standard amine coupling, leaving Fc1 or 3 unmodified to serve as a reference surface. The immobilization levels of proteins were calculated using Rmax=100 RU and the ratio of ligand molecular weight/analyte molecular. Data analysis was conducted using the BIAevaluation software. All sensorgrams were double-referenced by subtracting the response on a reference flow cell and a blank sample. Five 2× serial dilution samples were injected sequentially from low concentration to high concentration of proteins at a flow rate of 30 μL/min (300 seconds for each), followed by a dissociation time of 900 seconds. Calculations of kinetic parameters were conducted assuming a simple 1:1 (Langmuir) binding.
(§2) After the testing concentrating was optimized for individual proteins, they were applied on the immobilized chip, and association rate constant (Ka, M^−1s^−1), dissociation constant (Kd, s^−1), equilibrium dissociation constant (KD, M), maximal feasible signal (Rmax), and chi^2 were recorded. The results for complement C3b, C3c, and C3 are listed in Table 22, Table 23, and Table 24, respectively. […] The estimated IC50 of C3i and its fusion proteins and their binding affinity (KD) against C3b, C3c, and C3 are shown in Table 25. When KD values were plotted against estimated IC50, they correlated well with each other for C3b (FIG. 23A) and C3c (FIG. 23B) and, in most cases, for C3 (FIG. 23C).

Assay [5] has as its target C3 (Homo sapiens, UniProt P01024). Nature of the assay: Binding affinity to C3 by Biacore. How it is done: as §1, §2
Assay [6] relates to rabbit erythrocytes. Nature of the assay: Hemolysis inhibition assay with rabbit erythrocytes and normal human serum. It is filed as cell-based. The protocol:
In parallel, serum dose causing approximately 70% hemolysis was determined for new normal human serum (NHS) before the purified proteins were used for a hemolysis inhibition assay. Various doses of NHS were mixed with rabbit erythrocytes (Cat. B300, Complement Technology) in the presence of 0.1 M Mg2+ EGTA (Cat. B106, Complement Technology). Background lysis was measured using GVBE (GVBo plus 20 mM EDTA, pH 7.4), and maximum lysis was measured by lysing all the cells with Maximum Lysis Buffer (GVBo+0.2% NP40). After all the samples were mixed on ice, they were transferred to 37° C. water bath. The samples were vortexed every 5 minutes and incubated for 30 minutes in total. 1 mL of cold GVBE was added into each tube to stop the reaction. After samples were centrifuged for 3 min at approximately 1000× g to pellet cells, the supernatant was transferred to a cuvette and read at 412 nm in SpectaMax iD3 microplate reader. Each reading was normalized to the background, divided by Max Lysis minus background, and multiplied by 100, which equaled % of Max Lysis. Using the GraphPad Prism software, the % of Max Lysis was plotted against microliters of NHS, and the dose of NHS causing 50% and 70% hemolysis was respectively determined.
Using the NHS dose causing 70% hemolysis, the purified mutant proteins were utilized for a hemolysis inhibition assay. All mutant proteins were 2× serially diluted and mixed with the rabbit erythrocytes in the presence of NHS, resulting in the final concentration of […], 4.10, 2.05, and 1.02 μM of each mutant protein. The benchmark, CP40 peptide, was also used in this study. After each reading was subtracted from the background, it was divided by 70% hemolysis minus background and multiplied by 100. The value was considered as % of hemolysis inhibition. The percentage of hemolysis inhibition was plotted against the molecular concentration of mutant proteins by GraphPad Prism software and IC50 value was estimated based on the data plotting.

Sequence of C3 (P01024 23-1663): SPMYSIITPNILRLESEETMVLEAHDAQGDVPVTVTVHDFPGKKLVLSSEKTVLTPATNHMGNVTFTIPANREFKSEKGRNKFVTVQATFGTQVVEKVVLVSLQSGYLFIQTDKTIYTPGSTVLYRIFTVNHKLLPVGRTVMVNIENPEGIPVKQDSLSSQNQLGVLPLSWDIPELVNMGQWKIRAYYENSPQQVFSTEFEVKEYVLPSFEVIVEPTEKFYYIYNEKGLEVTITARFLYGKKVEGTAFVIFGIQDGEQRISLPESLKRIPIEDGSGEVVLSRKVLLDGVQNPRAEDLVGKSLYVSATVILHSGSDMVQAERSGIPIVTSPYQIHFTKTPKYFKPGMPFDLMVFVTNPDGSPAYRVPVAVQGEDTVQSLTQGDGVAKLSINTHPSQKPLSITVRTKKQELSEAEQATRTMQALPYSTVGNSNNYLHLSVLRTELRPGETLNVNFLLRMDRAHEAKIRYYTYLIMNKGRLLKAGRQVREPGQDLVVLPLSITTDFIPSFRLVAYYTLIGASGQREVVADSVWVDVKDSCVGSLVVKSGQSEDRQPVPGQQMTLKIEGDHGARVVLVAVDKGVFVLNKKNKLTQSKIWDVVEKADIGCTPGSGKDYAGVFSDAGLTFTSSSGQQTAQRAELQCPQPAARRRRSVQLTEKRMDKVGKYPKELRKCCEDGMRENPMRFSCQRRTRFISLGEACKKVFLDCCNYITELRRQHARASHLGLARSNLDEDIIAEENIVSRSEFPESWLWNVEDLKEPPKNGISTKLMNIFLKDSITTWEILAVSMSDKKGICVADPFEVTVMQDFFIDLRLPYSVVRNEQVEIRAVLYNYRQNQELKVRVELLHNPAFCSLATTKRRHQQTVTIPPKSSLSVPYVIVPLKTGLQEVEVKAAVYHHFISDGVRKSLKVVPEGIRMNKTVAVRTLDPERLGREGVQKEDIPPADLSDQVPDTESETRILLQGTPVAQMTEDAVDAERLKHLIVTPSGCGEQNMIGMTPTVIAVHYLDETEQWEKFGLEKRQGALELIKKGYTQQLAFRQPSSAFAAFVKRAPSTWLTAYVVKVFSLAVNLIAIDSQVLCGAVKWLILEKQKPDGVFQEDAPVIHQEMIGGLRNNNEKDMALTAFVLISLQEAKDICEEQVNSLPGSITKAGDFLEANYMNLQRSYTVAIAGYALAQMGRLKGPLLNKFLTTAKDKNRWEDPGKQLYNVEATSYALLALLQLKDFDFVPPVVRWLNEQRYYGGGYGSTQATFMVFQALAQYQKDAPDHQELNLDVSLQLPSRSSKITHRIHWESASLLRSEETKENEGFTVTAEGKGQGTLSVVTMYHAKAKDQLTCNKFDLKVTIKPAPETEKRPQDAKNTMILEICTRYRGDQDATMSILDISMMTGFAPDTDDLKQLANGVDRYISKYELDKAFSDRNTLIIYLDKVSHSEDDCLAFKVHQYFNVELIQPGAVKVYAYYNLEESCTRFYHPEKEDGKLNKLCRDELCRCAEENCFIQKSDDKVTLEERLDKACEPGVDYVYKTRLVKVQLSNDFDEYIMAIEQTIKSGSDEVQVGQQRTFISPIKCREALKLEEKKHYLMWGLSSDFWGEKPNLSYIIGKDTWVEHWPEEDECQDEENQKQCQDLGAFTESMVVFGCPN
T1 sequence (P01024 23-667 limits assumed): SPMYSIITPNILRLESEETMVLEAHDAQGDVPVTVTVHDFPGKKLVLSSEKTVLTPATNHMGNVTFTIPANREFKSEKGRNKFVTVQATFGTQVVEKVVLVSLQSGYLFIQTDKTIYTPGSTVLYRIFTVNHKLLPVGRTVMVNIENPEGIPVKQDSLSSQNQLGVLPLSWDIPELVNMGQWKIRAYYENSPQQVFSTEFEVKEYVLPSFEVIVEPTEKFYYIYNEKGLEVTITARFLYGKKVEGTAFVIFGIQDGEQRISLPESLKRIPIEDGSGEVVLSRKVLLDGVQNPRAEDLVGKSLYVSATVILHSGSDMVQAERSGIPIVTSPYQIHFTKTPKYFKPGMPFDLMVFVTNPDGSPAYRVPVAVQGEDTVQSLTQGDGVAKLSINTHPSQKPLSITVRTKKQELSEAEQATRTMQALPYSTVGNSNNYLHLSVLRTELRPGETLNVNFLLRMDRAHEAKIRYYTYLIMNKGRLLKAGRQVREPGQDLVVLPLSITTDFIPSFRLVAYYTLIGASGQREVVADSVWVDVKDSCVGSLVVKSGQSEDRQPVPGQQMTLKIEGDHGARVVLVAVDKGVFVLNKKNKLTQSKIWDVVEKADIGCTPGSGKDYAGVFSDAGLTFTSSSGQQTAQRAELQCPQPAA
T1 sequence (P01024 749-954 partner limits assumed): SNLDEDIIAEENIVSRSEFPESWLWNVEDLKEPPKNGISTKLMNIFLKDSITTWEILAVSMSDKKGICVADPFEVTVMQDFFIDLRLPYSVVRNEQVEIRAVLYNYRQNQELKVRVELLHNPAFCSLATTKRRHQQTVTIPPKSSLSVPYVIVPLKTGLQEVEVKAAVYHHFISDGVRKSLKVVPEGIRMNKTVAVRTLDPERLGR
T1 sequence (P01024 1321-1663 partner limits assumed): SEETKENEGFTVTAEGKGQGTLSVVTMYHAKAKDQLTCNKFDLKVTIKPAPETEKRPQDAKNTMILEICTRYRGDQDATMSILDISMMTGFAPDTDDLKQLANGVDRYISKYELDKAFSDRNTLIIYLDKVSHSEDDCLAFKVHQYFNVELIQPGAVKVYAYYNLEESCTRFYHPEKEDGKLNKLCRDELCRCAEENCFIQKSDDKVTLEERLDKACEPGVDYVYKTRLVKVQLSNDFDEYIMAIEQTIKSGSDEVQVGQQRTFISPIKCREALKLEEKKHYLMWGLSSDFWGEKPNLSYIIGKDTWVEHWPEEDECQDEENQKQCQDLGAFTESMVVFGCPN
Sequence of C3b (P01024 23-667 limits assumed): as the sequence (P01024 23-667 limits assumed) above
Sequence of C3b (P01024 749-1663 partner limits assumed): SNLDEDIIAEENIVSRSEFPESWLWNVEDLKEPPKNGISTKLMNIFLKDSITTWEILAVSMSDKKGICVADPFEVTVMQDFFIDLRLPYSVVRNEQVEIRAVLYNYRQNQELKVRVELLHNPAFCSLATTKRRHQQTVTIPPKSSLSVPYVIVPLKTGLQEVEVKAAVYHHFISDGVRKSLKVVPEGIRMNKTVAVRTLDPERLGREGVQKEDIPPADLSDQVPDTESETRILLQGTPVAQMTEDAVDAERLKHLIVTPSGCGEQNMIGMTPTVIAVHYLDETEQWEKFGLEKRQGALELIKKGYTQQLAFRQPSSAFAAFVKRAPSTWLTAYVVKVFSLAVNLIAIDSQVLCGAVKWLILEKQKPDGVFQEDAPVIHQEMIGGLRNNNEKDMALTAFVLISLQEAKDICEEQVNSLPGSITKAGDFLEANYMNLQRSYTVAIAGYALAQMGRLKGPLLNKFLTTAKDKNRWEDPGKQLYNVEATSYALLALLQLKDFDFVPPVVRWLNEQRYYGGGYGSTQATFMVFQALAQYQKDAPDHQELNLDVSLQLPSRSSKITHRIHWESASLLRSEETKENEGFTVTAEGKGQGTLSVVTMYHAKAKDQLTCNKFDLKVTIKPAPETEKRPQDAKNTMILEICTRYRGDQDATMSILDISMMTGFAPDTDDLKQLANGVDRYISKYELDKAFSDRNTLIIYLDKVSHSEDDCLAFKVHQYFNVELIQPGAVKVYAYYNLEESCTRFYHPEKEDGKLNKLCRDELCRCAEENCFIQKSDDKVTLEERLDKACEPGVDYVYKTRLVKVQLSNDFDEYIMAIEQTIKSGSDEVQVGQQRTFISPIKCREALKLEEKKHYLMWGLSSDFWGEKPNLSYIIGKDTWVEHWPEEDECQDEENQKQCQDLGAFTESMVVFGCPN

On to `CC[C@H](C)[C@H](NC(=O)[C@H](N)Cc1ccc(O)cc1)C(=O)N[C@H]1CSSC[C@@H](C(=O)N(C)[C@H](C(N)=O)[C@@H](C)CC)NC(=O)[C@H](CCCNC(=N)N)NC(=O)[C@H](Cc2c[nH]cn2)NC(=O)[C@H](C)NC(=O)CN(C)C(=O)[C@H](Cc2c[nH]c3ccccc23)NC(=O)[C@H](CC(=O)O)NC(=O)[C@H](CCC(N)=O)NC(=O)[C@H](Cc2cn(C)c3ccccc23)NC(=O)[C@H](C(C)C)NC1=O` [CP40], for which the cGMP production entry in assay [1] is reported as “not”. Also, the cell lysis inhibition entry in assay [2] is “marginal inhibition”. The Kd stood at 0.509 nM in assay [3]; 0.32 nM in assay [4] (Affinity to C3b KD, C3b, Biacore, Table 25); 0.324 nM in assay [4] (KD, C3b immobilized, 1:1 (Langmuir) binding); 0.63 nM in assay [5] (Affinity to C3 KD, Table 25); 0.629 nM in assay [5] (KD, equilibrium dissociation constant, room temperature, pH 7.4). Besides, the “Chi^2” value in assay [3] (chi^2 of fit, C3c, Biacore) is 0.05; in assay [4] (C3b immobilized, fit) it was 0.12; in assay [5] (chi^2 of fit), 0.10. Further, the Rmax in assay [3] (maximal feasible signal, C3c, Biacore) was found to be 4.65; in assay [5] (maximal feasible signal), 25.70. For the same compound, the “Rmax (maximal feasible signal)” value in assay [4] (C3b immobilized) is reported as 3.18. In assay [6] (NHS dose causing 70% hemolysis), the “Estimated IC50 of hemolysis inhibition” value is 780 nM. Also, the “Bioactivity IC50 Change” value in assay [6] (change of estimated IC50 relative to CP40) was 1 fold. The IC50 in assay [6] (estimated IC50, read-out: Bioactivity IC50) is 780 nM.

For orientation: Kd means a measure of binding affinity in units of concentration. Lower therefore signals higher affinity. One may read the IC50 as the concentration that inhibits the measured activity by half.
